Usually IC50 stands for the concentration at which inhibition is half-maximal. What is called fraction unbound is free concentration divided by total concentration. The low end stands for little free substance, the high end for much free substance. One may read the half-life as the time in which the quantity being followed falls by half. Read a high half-life as slow loss.

The values below come from ChEMBL document CHEMBL3853265 (Medchemcomm, 2016).

Molecules are shown by their SMILES.

Data set [1] can be described thus: Volume of distribution at steady state in rat at 1 mg/kg, iv and 3 mg/kg, po. In kind it is ADME, organism-based. Conditions: in vivo, read-out: Vdss.
The target of data set [2] is T1, Solute carrier organic anion transporter family member 2B1 (Homo sapiens, UniProt O94956).
T1 sequence (O94956 whole entry): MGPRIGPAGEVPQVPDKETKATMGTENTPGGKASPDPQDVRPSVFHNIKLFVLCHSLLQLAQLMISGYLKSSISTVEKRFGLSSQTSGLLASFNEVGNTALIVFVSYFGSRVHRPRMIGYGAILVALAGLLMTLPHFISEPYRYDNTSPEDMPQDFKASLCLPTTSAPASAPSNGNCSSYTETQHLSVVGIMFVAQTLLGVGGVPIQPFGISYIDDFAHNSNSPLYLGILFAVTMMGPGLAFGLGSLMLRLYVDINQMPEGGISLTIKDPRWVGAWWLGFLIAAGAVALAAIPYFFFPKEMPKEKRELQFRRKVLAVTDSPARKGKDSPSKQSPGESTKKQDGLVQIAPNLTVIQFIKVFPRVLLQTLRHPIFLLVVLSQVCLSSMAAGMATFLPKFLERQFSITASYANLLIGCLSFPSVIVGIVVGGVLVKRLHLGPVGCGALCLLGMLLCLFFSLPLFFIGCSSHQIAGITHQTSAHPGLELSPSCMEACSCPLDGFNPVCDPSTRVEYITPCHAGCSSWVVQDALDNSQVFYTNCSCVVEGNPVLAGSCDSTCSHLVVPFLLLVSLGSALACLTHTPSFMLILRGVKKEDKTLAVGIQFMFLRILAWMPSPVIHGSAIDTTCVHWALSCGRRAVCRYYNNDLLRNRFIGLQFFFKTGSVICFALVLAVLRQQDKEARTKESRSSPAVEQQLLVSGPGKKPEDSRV
Put plainly: Drug uptake assessed as human OATP2B1-mediated drug accumulation by cell-based assay relative to wild type protein. In kind it is ADME.

Data set [3] addresses T2, Solute carrier family 22 member 11 (Homo sapiens, UniProt Q9NSA0).
T2 sequence (Q9NSA0 whole entry): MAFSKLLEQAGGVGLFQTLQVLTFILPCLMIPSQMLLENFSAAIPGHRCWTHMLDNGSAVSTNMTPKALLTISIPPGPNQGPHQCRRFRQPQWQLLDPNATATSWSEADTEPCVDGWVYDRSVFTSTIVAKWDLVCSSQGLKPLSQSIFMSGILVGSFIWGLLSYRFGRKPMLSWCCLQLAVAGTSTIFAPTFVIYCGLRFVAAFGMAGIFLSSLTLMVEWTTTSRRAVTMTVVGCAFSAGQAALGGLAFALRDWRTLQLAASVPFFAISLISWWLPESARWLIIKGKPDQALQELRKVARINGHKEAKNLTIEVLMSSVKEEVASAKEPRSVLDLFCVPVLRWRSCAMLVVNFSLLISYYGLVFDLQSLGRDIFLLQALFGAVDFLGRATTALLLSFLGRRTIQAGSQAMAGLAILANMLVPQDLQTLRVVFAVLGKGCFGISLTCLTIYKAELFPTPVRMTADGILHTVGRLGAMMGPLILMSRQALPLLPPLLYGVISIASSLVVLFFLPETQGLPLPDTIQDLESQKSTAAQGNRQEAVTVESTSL
The experiment in a line: Inhibition of OAT4 (unknown origin).

Data set [4] is described as follows: Renal clearance in dog at 0.363 mg/kg, iv and 0.737 mg/kg, po relative to GFR x fraction unbound. In kind it is ADME, organism-based, Canis lupus familiaris. The conditions noted are these: in vivo.
For the next data set, the system named is Rattus norvegicus. The experiment in a line: Toxicity in po dosed Wistar Han rat assessed as drug tolerance administered for 14 days. In kind it is organism-based. The conditions noted are these: in vivo, 336 h.
Data set [5] in a line: Oral bioavailability in rat at 3 mg/kg. In kind it is ADME, organism-based. The conditions noted are these: in vivo.
A short description of data set [6]: Unbound clearance in rat at 1 mg/kg, iv and 3 mg/kg, po. In kind it is ADME, organism-based. Conditions: in vivo.
In data set [7] the target is T3, Solute carrier family 22 member 12 (Homo sapiens, UniProt Q96S37).
T3 sequence (Q96S37 whole entry): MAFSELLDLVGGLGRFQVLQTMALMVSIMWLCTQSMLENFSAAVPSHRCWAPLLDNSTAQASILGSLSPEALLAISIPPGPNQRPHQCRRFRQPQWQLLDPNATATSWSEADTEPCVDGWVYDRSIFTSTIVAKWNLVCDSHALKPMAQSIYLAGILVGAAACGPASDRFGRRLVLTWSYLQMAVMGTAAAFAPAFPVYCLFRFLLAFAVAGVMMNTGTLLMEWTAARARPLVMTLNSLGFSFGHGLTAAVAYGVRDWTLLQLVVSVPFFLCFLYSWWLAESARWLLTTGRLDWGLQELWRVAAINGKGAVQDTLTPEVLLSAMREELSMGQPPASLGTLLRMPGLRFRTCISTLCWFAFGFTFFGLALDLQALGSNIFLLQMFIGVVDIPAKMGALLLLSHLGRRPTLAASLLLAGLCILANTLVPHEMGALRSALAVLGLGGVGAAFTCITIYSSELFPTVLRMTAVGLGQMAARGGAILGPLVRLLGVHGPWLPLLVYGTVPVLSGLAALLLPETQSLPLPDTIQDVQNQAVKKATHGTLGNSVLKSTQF
The experiment in a line: Inhibition of human C-terminal eGFP-tagged URAT1 long isoform expressed in CHO cells assessed as decrease in [14C]-uric acid uptake preincubated for 15 mins followed by [14C]-uric acid addition and incubated in dark for 3 hrs by scintillation counting method. In kind it is cell-based.

The nature of data set [8]: Intrinsic clearance in human hepatocytes assessed per 10^6 cells. In kind it is ADME, cell-based, Hepatocyte.
Data set [9] in a line: Renal clearance in rat at 1 mg/kg, iv and 3 mg/kg, po relative to GFR x fraction unbound. Conditions: in vivo. In kind it is ADME, organism-based.
In data set [10] the target is Sodium channel protein type 5 subunit alpha (Homo sapiens, UniProt Q14524). The experiment in a line: Inhibition of human NaV1.5 expressed in HEK293 cells by patch clamp method. In kind it is cell-based. For orientation: In patch-clamp work, channel activity is measured electrically.
Sequence of Sodium channel protein type 5 subunit alpha (Q14524 whole entry): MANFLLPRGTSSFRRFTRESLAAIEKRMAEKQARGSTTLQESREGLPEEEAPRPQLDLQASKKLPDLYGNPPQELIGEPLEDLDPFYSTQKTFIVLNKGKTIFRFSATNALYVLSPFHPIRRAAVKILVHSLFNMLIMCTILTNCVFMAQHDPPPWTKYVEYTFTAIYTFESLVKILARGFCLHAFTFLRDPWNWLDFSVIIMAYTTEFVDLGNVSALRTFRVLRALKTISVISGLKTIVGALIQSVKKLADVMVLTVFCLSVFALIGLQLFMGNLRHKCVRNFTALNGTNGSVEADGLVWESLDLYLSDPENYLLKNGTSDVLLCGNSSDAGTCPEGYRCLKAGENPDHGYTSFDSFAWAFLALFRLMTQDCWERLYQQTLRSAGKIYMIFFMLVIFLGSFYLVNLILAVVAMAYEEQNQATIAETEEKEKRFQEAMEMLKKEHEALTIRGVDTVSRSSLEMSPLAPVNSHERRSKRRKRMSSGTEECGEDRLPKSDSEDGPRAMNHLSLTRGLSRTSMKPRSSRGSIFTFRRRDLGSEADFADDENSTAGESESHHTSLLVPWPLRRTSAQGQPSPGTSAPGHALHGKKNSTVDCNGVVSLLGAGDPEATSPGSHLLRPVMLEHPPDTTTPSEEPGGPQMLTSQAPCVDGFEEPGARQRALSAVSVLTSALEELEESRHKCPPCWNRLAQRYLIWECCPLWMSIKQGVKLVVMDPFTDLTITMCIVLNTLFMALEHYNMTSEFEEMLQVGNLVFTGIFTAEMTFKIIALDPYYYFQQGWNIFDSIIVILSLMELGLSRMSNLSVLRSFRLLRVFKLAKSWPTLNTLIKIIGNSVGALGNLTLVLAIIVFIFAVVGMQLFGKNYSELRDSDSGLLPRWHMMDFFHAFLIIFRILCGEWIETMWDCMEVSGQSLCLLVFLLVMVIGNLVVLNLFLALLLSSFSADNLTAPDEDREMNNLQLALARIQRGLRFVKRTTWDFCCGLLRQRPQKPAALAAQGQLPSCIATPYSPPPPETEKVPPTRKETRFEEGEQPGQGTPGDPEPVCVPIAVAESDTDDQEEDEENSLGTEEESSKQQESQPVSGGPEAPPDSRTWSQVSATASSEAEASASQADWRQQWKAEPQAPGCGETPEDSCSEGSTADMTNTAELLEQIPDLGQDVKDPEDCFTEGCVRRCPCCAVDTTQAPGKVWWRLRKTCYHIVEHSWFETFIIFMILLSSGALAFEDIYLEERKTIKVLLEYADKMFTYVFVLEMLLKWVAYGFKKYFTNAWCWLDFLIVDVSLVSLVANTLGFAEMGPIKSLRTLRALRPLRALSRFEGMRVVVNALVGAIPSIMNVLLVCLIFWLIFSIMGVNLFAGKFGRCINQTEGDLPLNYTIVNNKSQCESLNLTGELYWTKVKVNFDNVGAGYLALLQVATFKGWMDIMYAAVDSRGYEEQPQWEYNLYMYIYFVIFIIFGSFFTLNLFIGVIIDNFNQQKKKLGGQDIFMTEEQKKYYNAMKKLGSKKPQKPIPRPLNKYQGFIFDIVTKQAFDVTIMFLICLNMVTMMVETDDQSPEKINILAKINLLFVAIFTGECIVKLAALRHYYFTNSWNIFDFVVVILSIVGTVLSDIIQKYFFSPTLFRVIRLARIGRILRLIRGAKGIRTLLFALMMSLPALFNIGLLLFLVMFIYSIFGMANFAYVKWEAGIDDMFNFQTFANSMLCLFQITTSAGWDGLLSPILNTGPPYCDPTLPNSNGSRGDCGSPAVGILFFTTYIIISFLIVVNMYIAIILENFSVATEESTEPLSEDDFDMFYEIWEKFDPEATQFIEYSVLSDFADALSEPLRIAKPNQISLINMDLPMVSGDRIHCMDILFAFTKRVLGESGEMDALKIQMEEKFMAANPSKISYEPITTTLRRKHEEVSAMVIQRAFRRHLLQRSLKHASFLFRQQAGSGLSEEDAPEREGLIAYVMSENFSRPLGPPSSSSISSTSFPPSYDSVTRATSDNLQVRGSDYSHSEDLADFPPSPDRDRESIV
The nature of data set [11]: Renal clearance in dog at 1 mg/kg, iv and 3 mg/kg, po relative to GFR x fraction unbound. In kind it is ADME, organism-based, Canis lupus familiaris. Conditions: in vivo.
Data set [12] is described as follows: Fraction unbound in dog plasma. In kind it is ADME, cell-free, Canis lupus familiaris.
Data set [13] is described as follows: Half life in rat at 1 mg/kg, iv and 3 mg/kg, po. Conditions: in vivo. In kind it is ADME, organism-based.
Data set [14] can be described thus: Intrinsic clearance in human liver microsomes. In kind it is ADME. Conditions: read-out: CLH.

As to `O=S(=O)(Nc1ccc(C(F)(F)F)nc1)c1ccccc1C(F)(F)F`, the Vd in data set [1] was determined as 0.4 L/kg. Also, the “fold change (FC)” value in [2] is recorded as 1.145. Further, the figures for the IC50 in data set [3], in [7] and in data set [10] were 9.4 µM, 0.042 µM and greater than 100 µM, respectively. The CL in data set [4], in data set [9] and in [11] was less than 2% throughout. The Activity result in the data set with Rattus norvegicus was “<= 100 mg kg-1”. Besides, the bioavailability in data set [5] is 98%. Besides, the CL free in [6] was 41 mL/min/kg. For the same compound, the CLH in [8] is less than 6 µL/min/1e6 cells. The compound further registered a fraction unbound in data set [12] of 0.01. In data set [13], this compound showed a half-life of 27.3 h. Besides, the microsomal CLint in [14] is less than 8 µL/min/mg.

Regarding `O=S(=O)(Nc1cncc(C(F)(F)F)c1)c1ccccc1C(F)(F)F`, the Vd in data set [1] is 0.14 L/kg. The “fold change (FC)” value in data set [2] is listed as 0.961. In addition, the concentration for half-maximal inhibition (IC50) in [3] is 8.5 µM; in data set [7] it was 0.036 µM; in [10], greater than 30 µM. Also, the CL in data set [4], in data set [9] and in data set [11] was less than 2% in each case. For the same compound, the Activity result with Rattus norvegicus is “<= 100 mg/kg/day”. Moreover, the bioavailability in data set [5] stood at 150%. In data set [6], this compound registered a CL free of 324 mL/min/kg. For the same compound, in data set [8], the CLH came out at 6 µL/min/1e6 cells. Also, the fraction unbound in [12] came to 0.057. Besides, the half-life in data set [13] was 3.3 h. For the same compound, the microsomal CLint in data set [14] was determined as 11 µL/min/mg.
